± gives the expanded uncertainty stated by the source.

Series [1] can be described thus: molar heat capacity at constant pressure. The settings on record: 101.33 kPa, Liquid, Small sample (50 mg) DSC.
For series [2] the following is noted: 101.33 kPa, Liquid; for viscosity: Capillary tube (Ostwald / Ubbelohde) method.
Series [3] in a line: refractive index (Na D-line) (dimensionless). The note with it: 101.33 kPa, Liquid, Standard Abbe refractometry.

Consider `CCCO` [propan-1-ol], for which the “molar heat capacity at constant pressure” value turned out to be 139 ± 2 J/K/mol in series [1] (288.15 K); 142.3 ± 2.2 J/K/mol in series [1] (293.15 K); 144.9 ± 2.2 J/K/mol in series [1] (298.15 K); 148.2 ± 2.3 J/K/mol in series [1] (303.15 K); 151 ± 2.3 J/K/mol in series [1] (308.15 K); 153.7 ± 2.4 J/K/mol in series [1] (313.15 K). In addition, the “molar heat capacity at constant pressure” value in series [1] (318.15 K) came out at 157.1 ± 2.4 J/K/mol; in series [1] (323.15 K), 160.1 ± 2.5 J/K/mol; in series [1] (328.15 K), 164.5 ± 2.6 J/K/mol; in series [1] (333.15 K), 167.8 ± 2.6 J/K/mol. For the same molecule, the mass density (as a rule, mass per unit of volume) in series [2] (288.15 K) is recorded as 807.51 ± 0.28 kg/m3; in series [2] (298.15 K), 799.54 ± 0.29 kg/m3; in series [2] (308.15 K), 791.41 ± 0.3 kg/m3. Moreover, the viscosity (usually the internal friction of a fluid under shear) in series [2] (288.15 K) is reported as 2.498 ± 0.028 mPa·s; in series [2] (298.15 K), 1.952 ± 0.022 mPa·s; in series [2] (308.15 K), 1.564 ± 0.018 mPa·s. Further, the refractive index (usually the speed of light in vacuum divided by its phase velocity in the sample) in series [3] (288.15 K) is given as 1.3893 ± 0.0007; in series [3] (298.15 K), 1.3837 ± 0.0006; in series [3] (308.15 K) it was 1.3795 ± 0.0005.
On to `C[S+](C)[O-]` [dimethyl sulfoxide], for which the “molar heat capacity at constant pressure” value in series [1] (288.15 K) came out at 146.8 ± 2.3 J/K/mol; in series [1] (298.15 K) it was 152.4 ± 2.4 J/K/mol; in series [1] (308.15 K) it was 154.6 ± 2.4 J/K/mol. Further, the results for the mass density in series [2] (288.15 K), in series [2] (298.15 K) and in series [2] (308.15 K) were 1105.39 ± 0.47 kg/m3, 1095.36 ± 0.45 kg/m3 and 1085.31 ± 0.43 kg/m3, respectively. In addition, the viscosity in series [2] (288.15 K) was 2.473 ± 0.029 mPa·s; in series [2] (298.15 K) it was 1.989 ± 0.023 mPa·s; in series [2] (308.15 K) it was 1.644 ± 0.019 mPa·s. The refractive index in series [3] (288.15 K) is reported as 1.4835 ± 0.0007; in series [3] (298.15 K), 1.4778 ± 0.0006; in series [3] (308.15 K), 1.473 ± 0.0006.
